As a reminder, the half-life is the time needed for the level to fall by half in the phase considered. A higher half-life goes with slow decline. Broadly, the Ki is the dissociation constant of the complex between target and ligand, obtained from inhibition or displacement.

Consider 13 compounds from publication PMC7957705 (Molecules, 2021).

Like-named read-outs stand apart in the source and are kept apart here. Where a SMILES comes first, the peptide text is derived from it. Bridges are numbered along the chain shown (N, C = ends). Triazole bridges read from a SMILES are 1,4-linked. [ ]: non-standard residue; d: D form. The star is where a group is joined. Benzoyl(4-guanidino) = N=C(N)Nc1ccc(C(=O)*)cc1; Pro(4S-NH2) = N[C@@H]1CN[C@H](C(=O)O)C1; Orn(N3) = [N-]=[N+]=NCCC[C@H](N)C(=O)O; Aha = [N-]=[N+]=NCC[C@H](N)C(=O)O; Cav = NC(N)=NOCC[C@H](N)C(=O)O; Hpra = C#CCC[C@H](N)C(=O)O; hCys = N[C@@H](CCS)C(=O)O; Orn = NCCC[C@H](N)C(=O)O; Pra = C#CC[C@H](N)C(=O)O

The format of data set [1] is in vitro ADME. Particulars: plasma. The protocol: Plasmas from 3 species (including commercially available human healthy donors) were adjusted to pH 7.4 if necessary. Incubations were performed at a concentration of 1 µM of the compound at 37 °C (in the presence of a final concentration of DMSO of 2.5% v/v. The incubations were stopped at 0, 15, 30, 60 and 120 min by methanol. Each time point was run in sextuplets. The sampling plates were then centrifuged (2500 rpm, 45 min, 4 °C) and the supernatants pooled. Samples were analyzed for parent compound by LC-MS/MS. The percentage of parent compound remaining at each time point relative to the 0 min sample is then calculated from LC-MS/MS peak area ratios. Then, the stability in plasma was evaluated by incubating human, rat or mouse plasma with the compound(s) as follows: the product (0.1 µM in TRIS buffer pH 7.4 0.1% BSA) was incubated with the plasma at 37 °C. The disappearance of the product was measured at 15, 45, 120, 240 and 300 min by mass spectrometry. Incubations were carried out in a robot Star (Hamilton France, Villebon-sur-Yvette, France). At each sampling time, 50 µL of the reaction medium was removed and diluted with 100 µL of acetonitrile. After centrifugation (20 min at + 4 °C, 4000 rpm), 75 µL of the supernatants was transferred into a 384 well injection plate. Ten microliters were injected onto UPLC coupled with a XEVO TQS mass spectrometer system (Waters, Milford, MA, USA). The unchanged product is quantified using a reference sample (0.1 µM) prepared during the incubation process. A second reference sample at 0.01 µM is prepared in the same conditions to verify the linearity of the detection method. The peak height (or area) is measured to calculate the half-life of the compound.

The target of a further data set is T1, human MCH-R1 (Homo sapiens, UniProt Q99705).
T1 construct: expressed in transfected cells
T1 sequence (Q99705 whole entry): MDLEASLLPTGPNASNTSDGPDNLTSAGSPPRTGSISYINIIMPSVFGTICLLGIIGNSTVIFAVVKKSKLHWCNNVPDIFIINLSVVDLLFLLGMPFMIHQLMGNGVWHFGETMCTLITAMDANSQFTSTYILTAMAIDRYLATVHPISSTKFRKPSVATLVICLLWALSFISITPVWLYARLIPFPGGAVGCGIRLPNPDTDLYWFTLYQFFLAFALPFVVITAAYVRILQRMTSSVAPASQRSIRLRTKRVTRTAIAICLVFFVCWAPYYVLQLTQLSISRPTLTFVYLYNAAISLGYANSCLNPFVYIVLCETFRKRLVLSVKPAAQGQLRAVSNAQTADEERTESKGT
In words: MCH-induced cytosolic Ca2+ ion mobilization, antagonist effect. In kind it is cell-based. To be noted: antagonism of MCH-induced cytosolic Ca2+ mobilization; read-out: Ki (functionality, antagonism at MCH-R1). The protocol:
The functional assay was run onto cells expressing the hMCH-R1 receptor, as described in Wang et al.. In brief, the cells are suspended in DMEM buffer (Invitrogen), then distributed in microplates at a density of 4.104 cells/well. The fluorescent probe (Fluo4 Direct, Invitrogen) mixed with probenecid in Hanks’ Balanced Salt solution (HBSS) (Invitrogen) complemented with 20 mM HEPES (Invitrogen) (pH 7.4) is then added into each well and equilibrated with the cells for 60 min at 37 °C, then 15 min at 22 °C. Then, the assay plates are positioned in a microplate reader (CellLux, PerkinElmer) which is used for the addition of the test compound, reference agonist or HBSS buffer (basal control), and the measurements of changes in fluorescence intensity, which varies proportionally to the free cytosolic Ca^2+ ion concentration. For stimulated control measurements, MCH at 300 nM is added in separate assay wells. The results are expressed as a percentage of the control response to 300 nM MCH. The standard reference agonist is MCH, which is tested in each experiment at several concentrations to generate a concentration-response curve from which its EC50 value is calculated. For the antagonist effect, the results are expressed as a percentage inhibition of the control response to 30 nM MCH, which was added to all tested wells and controls 5 min after the candidate products.
For orientation: A change in cytosolic calcium serves as a functional read-out for many receptors and channels.

The next data set can be described thus: human plasma. Particulars: 37 °C, up to 300 min.

`CSCC[C@@H]1NC(=O)[C@@H](NC(=O)c2ccc(NC(=N)N)cc2)CCC(=O)NCCC[C@@H](C(=O)N[C@@H](Cc2c[nH]c3ccccc23)C(=O)O)NC(=O)[C@@H]2CCCN2C(=O)[C@H](CCCNC(=N)N)NC(=O)[C@H](C(C)C)NC(=O)[C@H](CCCNC(=N)N)NC(=O)[C@H](CC(C)C)NC1=O` [GPS12744] ({Benzoyl(4-guanidino)}-EMLRVRP[Orn]W-OH; lactam 1-8): the half-life was no less than 5 h in data set [1] (human), 0.433 ± 0.05 h in data set [1] (mouse) and 2.38 ± 0.2 h in data set [1] (rat).
The corresponding values for `CCSCC[C@@H]1NC(=O)[C@@H](NC(=O)c2ccc(NC(=N)N)cc2)CCC(=O)NCCC[C@@H](C(=O)N[C@@H](Cc2c[nH]c3ccccc23)C(=O)O)NC(=O)[C@@H]2CCCN2C(=O)[C@H](CCCNC(=N)N)NC(=O)[C@H](C(C)C)NC(=O)[C@H](CCCNC(=N)N)NC(=O)[C@H](CC(C)C)NC1=O` [GPS13663] ({Benzoyl(4-guanidino)}-E[hCys](Et)LRVRP[Orn]W-OH; lactam 1-8) are no less than 5 h, 0.317 ± 0.0167 h and 1.57 ± 0.05 h.
As to `CSCC[C@H](NC(=O)[C@H](CCC(=O)O)NC(=O)c1ccc(NC(=N)N)cc1)C(=O)N[C@@H](CC(C)C)C(=O)N[C@@H](CCCNC(=N)N)C(=O)N[C@H](C(=O)N[C@@H](CCCNC(=N)N)C(=O)N1CCC[C@H]1C(=O)N[C@@H](CCCN)C(=O)N[C@@H](Cc1c[nH]c2ccccc12)C(=O)O)C(C)C` [GPS13669] ({Benzoyl(4-guanidino)}-EMLRVRP[Orn]W-OH), the inhibition constant Ki on human MCH-R1 was found to be 300 nM.
Still for that read-out and setting: to `CCSCC[C@@H]1NC(=O)[C@@H](NC(=O)c2ccc(NC(=N)N)cc2)Cc2cn(nn2)CC[C@@H](C(=O)N[C@@H](Cc2c[nH]c3ccccc23)C(=O)O)NC(=O)[C@@H]2CCCN2C(=O)[C@H](CCCNC(=N)N)NC(=O)[C@H](C(C)C)NC(=O)[C@H](CCCNC(=N)N)NC(=O)[C@H](CC(C)C)NC1=O` [GPS13671] ({Benzoyl(4-guanidino)}-[Pra][hCys](Et)LRVRP[Aha]W-OH; triazole 1-8) belongs 8 nM; to `CSCC[C@@H]1NC(=O)[C@@H](NC(=O)c2ccc(NC(=N)N)cc2)CCC(=O)NCCC[C@@H](C(=O)N[C@@H](Cc2c[nH]c3ccccc23)C(=O)O)NC(=O)[C@@H]2CCCN2C(=O)[C@H](CCON=C(N)N)NC(=O)[C@H](C(C)C)NC(=O)[C@H](CCCNC(=N)N)NC(=O)[C@H](CC(C)C)NC1=O` [GPS13683] ({Benzoyl(4-guanidino)}-EMLRV[Cav]P[Orn]W-OH; lactam 1-8), 0.15 nM.
On to `CSCC[C@@H]1NC(=O)[C@@H](NC(=O)c2ccc(NC(=N)N)cc2)CCC(=O)NCCC[C@@H](C(=O)N[C@@H](Cc2c[nH]c3ccccc23)C(=O)O)NC(=O)[C@@H]2C[C@H](N)CN2C(=O)[C@H](CCCNC(=N)N)NC(=O)[C@H](C(C)C)NC(=O)[C@H](CCCNC(=N)N)NC(=O)[C@H](CC(C)C)NC1=O` [GPS13684] ({Benzoyl(4-guanidino)}-EMLRVR[Pro(4S-NH2)][Orn]W-OH; lactam 1-8), for which the results for the half-life in data set [1] (human), in data set [1] (mouse) and in data set [1] (rat) were no less than 5 h, 0.433 ± 0.0167 h and 2.25 ± 0.15 h, respectively.
As for `CSCC[C@@H]1NC(=O)[C@@H](NC(=O)c2ccc(NC(=N)N)cc2)CCC(=O)NCCC[C@@H](C(=O)N[C@@H](Cc2c[nH]c3ccccc23)C(=O)O)NC(=O)[C@@H]2CCCN2C(=O)[C@H](CCCNC(=N)N)NC(=O)[C@H](Cc2ccc(O)cc2)NC(=O)[C@H](C(C)C)NC(=O)[C@H](CCCNC(=N)N)NC(=O)[C@H](CC(C)C)NC1=O` [GPS13695] ({Benzoyl(4-guanidino)}-EMLRVYRP[Orn]W-OH; lactam 1-9), at human MCH-R1, the inhibition constant (Ki) was determined as 0.13 nM.
With `CSCC[C@@H]1NC(=O)[C@@H](NC(=O)c2ccc(NC(=N)N)cc2)CCn2cc(nn2)CC[C@@H](C(=O)N[C@@H](Cc2c[nH]c3ccccc23)C(=O)O)NC(=O)[C@@H]2CCCN2C(=O)[C@H](CCCNC(=N)N)NC(=O)[C@H](C(C)C)NC(=O)[C@H](CCCNC(=N)N)NC(=O)[C@H](CC(C)C)NC1=O` [GPS14517] ({Benzoyl(4-guanidino)}-[Aha]MLRVRP[Hpra]W-OH; triazole 1-8), the inhibition constant Ki on human MCH-R1 stood at 0.022 nM.
Same read-out and setting: with `CSCC[C@@H]1NC(=O)[C@@H](NC(=O)c2ccc(NC(=N)N)cc2)Cc2cn(nn2)CCC[C@@H](C(=O)N[C@@H](Cc2c[nH]c3ccccc23)C(=O)O)NC(=O)[C@@H]2CCCN2C(=O)[C@H](CCCNC(=N)N)NC(=O)[C@H](C(C)C)NC(=O)[C@H](CCCNC(=N)N)NC(=O)[C@H](CC(C)C)NC1=O` [GPS14518] ({Benzoyl(4-guanidino)}-[Pra]MLRVRP[Orn(N3)]W-OH; triazole 1-8) the figure was 0.027 nM; with `CSCC[C@@H]1NC(=O)[C@@H](NC(=O)c2ccc(NC(=N)N)cc2)CCCn2cc(nn2)C[C@@H](C(=O)N[C@@H](Cc2c[nH]c3ccccc23)C(=O)O)NC(=O)[C@@H]2CCCN2C(=O)[C@H](CCCNC(=N)N)NC(=O)[C@H](C(C)C)NC(=O)[C@H](CCCNC(=N)N)NC(=O)[C@H](CC(C)C)NC1=O` [GPS14519] ({Benzoyl(4-guanidino)}-[Orn(N3)]MLRVRP[Pra]W-OH; triazole 1-8), 0.43 nM.
For the compound “Gua-Glu-Ethionine-Leu-Arg-Val-Arg-Pro-Orn-Trp”, the not cleaved entry in “human plasma” was “not metabolized at all, 100% of the initial dose found at 300 (5 h)”.
For the compound “Gua-Glu-Met-Leu-Arg-Val-Arg-4-NH2-Pro-Orn-Trp”, the not cleaved entry in “human plasma” is reported as “not metabolized at all, 100% of the initial dose found at 300 (5 h)”.
Gua-Glu-Met-Leu-Arg-Val-Arg-Pro-Orn-Trp: the not cleaved result in the data set “human plasma” is reported as “not metabolized at all, 100% of the initial dose found at 300 (5 h)”.
